The numbers were not newly measured in patent EP4520318A1, “TRANSDERMAL THERAPEUTIC SYSTEM OF LUMATEPERONE” (Luye Pharma Switzerland AG, priority 2023, dated 2025), which cites them from elsewhere.

For this data set the following is noted: oral administration.

`CN1CCN2c3c(cccc31)[C@@H]1CN(CCCC(=O)c3ccc(F)cc3)CC[C@@H]12` [lumateperone, 1-(4-fluoro-phenyl)-4-((6bR, 10aS)-3-methyl-2,3,6b,9,10,10a-hexahydro-1H,7H-pyrido[3',4':4,5]pyrrolo[1,2,3-de]quinoxalin-8-yl)-butan-1-one]: the oral bioavailability entry was “about 4.4%”.
